Columns and labels:
[1] = 101.33 kPa, Liquid
[2] = xn = mol fraction of the nth substance listed; conditions: 101.33 kPa, Liquid

C=C(C)C(=O)OCCO [2-hydroxyethyl 2-methyl-2-propenoate]
[1]
Conditions | mass density [kg/m3] | viscosity [mPa·s]
298.15 K | 1067.1 | 5.784
308.15 K | 1057.7 | 4.194
318.15 K | 1048.6 | 3.181

C=C(C)C(=O)OCCO [2-hydroxyethyl 2-methyl-2-propenoate] + CCOCCC(=O)OCC
[2], x2 = 0
Conditions | mass density [kg/m3] | viscosity [mPa·s]
298.15 K | 1067.1 | 5.784
308.15 K | 1057.7 | 4.194
318.15 K | 1048.6 | 3.181

C=C(C)C(=O)O [2-methyl-2-propenoic acid]
[1]
Conditions | mass density [kg/m3] | viscosity [mPa·s]
298.15 K | 1009.5 | 1.267
308.15 K | 999.4 | 1.078
318.15 K | 989.2 | 0.945

C=C(C)C(=O)O [2-methyl-2-propenoic acid] + CCOCCC(=O)OCC
[2], x2 = 0
Conditions | mass density [kg/m3] | viscosity [mPa·s]
298.15 K | 1009.5 | 1.267
308.15 K | 999.4 | 1.078
318.15 K | 989.2 | 0.945

C=C(C)C(=O)OCc1ccccc1 [benzyl methacrylate]
[1]
Conditions | mass density [kg/m3] | viscosity [mPa·s]
298.15 K | 1034.7 | 2.302
308.15 K | 1025.8 | 1.885
318.15 K | 1017 | 1.58

C=C(C)C(=O)OCc1ccccc1 [benzyl methacrylate] + CCOCCC(=O)OCC
[2], x2 = 0
Conditions | mass density [kg/m3] | viscosity [mPa·s]
298.15 K | 1034.7 | 2.302
308.15 K | 1025.8 | 1.885
318.15 K | 1017 | 1.58

CCCCO [butan-1-ol]
[1]
Conditions | mass density, 298.15 K [kg/m3] | mass density, 303.15 K [kg/m3] | mass density, 308.15 K [kg/m3] | mass density, 313.15 K [kg/m3] | viscosity, 298.15 K [mPa·s] | viscosity, 303.15 K [mPa·s] | viscosity, 308.15 K [mPa·s] | viscosity, 313.15 K [mPa·s]
Capillary tube (Ostwald / Ubbelohde) method | – | – | – | – | 2.566 | 2.265 | 1.998 | 1.778
Pycnometric method | 805.6 | 802.1 | 798 | 794.5 | – | – | – | –

CCOCCC(=O)OCC [ethyl β-ethoxypropionate]
[1]
Conditions | mass density [kg/m3] | viscosity [mPa·s]
298.15 K | 943.2 | 1.176
308.15 K | 933.4 | 0.996
318.15 K | 923.3 | 0.859

CCOCCC(=O)OCC [ethyl β-ethoxypropionate] + C=C(C)C(=O)O
[2]
Conditions | mass density, 298.15 K [kg/m3] | mass density, 308.15 K [kg/m3] | mass density, 318.15 K [kg/m3] | viscosity, 298.15 K [mPa·s] | viscosity, 308.15 K [mPa·s] | viscosity, 318.15 K [mPa·s]
x1 = 0.1 | 1000.5 | 990.7 | 980.6 | 1.349 | 1.139 | 0.986
x1 = 0.1999 | 992.4 | 982.7 | 972.8 | 1.425 | 1.198 | 1.028
x1 = 0.3 | 984.9 | 975.1 | 965.2 | 1.504 | 1.257 | 1.075
x1 = 0.4 | 978.1 | 968.3 | 958.4 | 1.551 | 1.293 | 1.103
x1 = 0.5 | 971.5 | 961.7 | 951.9 | 1.516 | 1.262 | 1.08
x1 = 0.6 | 965.3 | 955.6 | 945.7 | 1.439 | 1.211 | 1.029
x1 = 0.7 | 959.5 | 949.8 | 939.8 | 1.369 | 1.156 | 0.982
x1 = 0.8 | 954.1 | 944.4 | 934.4 | 1.313 | 1.108 | 0.944
x1 = 0.8999 | 948.5 | 938.9 | 929.1 | 1.243 | 1.049 | 0.899
x1 = 1 | 943.2 | 933.4 | 923.3 | 1.176 | 0.996 | 0.859

CCOCCC(=O)OCC [ethyl β-ethoxypropionate] + C=C(C)C(=O)OCCO
[2]
Conditions | mass density, 298.15 K [kg/m3] | mass density, 308.15 K [kg/m3] | mass density, 318.15 K [kg/m3] | viscosity, 298.15 K [mPa·s] | viscosity, 308.15 K [mPa·s] | viscosity, 318.15 K [mPa·s]
x1 = 0.1 | 1053 | 1043.6 | 1034.4 | 4.507 | 3.352 | 2.598
x1 = 0.2 | 1039.1 | 1029.6 | 1020.3 | 3.696 | 2.821 | 2.239
x1 = 0.3 | 1025.6 | 1016.1 | 1006.6 | 3.072 | 2.379 | 1.918
x1 = 0.4 | 1012.7 | 1003.1 | 993.5 | 2.503 | 1.98 | 1.611
x1 = 0.5 | 1000.2 | 990.5 | 980.8 | 2.156 | 1.731 | 1.425
x1 = 0.6 | 988.1 | 978.4 | 968.6 | 1.833 | 1.495 | 1.243
x1 = 0.6999 | 976.5 | 966.8 | 956.9 | 1.627 | 1.34 | 1.127
x1 = 0.8 | 965.2 | 955.5 | 945.6 | 1.417 | 1.181 | 1.007
x1 = 0.9 | 954.3 | 944.6 | 934.6 | 1.269 | 1.065 | 0.911
x1 = 1 | 943.2 | 933.4 | 923.3 | 1.176 | 0.996 | 0.859

CCOCCC(=O)OCC [ethyl β-ethoxypropionate] + C=C(C)C(=O)OCc1ccccc1
[2]
Conditions | mass density, 298.15 K [kg/m3] | mass density, 308.15 K [kg/m3] | mass density, 318.15 K [kg/m3] | viscosity, 298.15 K [mPa·s] | viscosity, 308.15 K [mPa·s] | viscosity, 318.15 K [mPa·s]
x1 = 0.1 | 1027 | 1017.9 | 1008.9 | 2.16 | 1.767 | 1.479
x1 = 0.2 | 1019.1 | 1009.9 | 1000.7 | 2.027 | 1.664 | 1.398
x1 = 0.3 | 1010.9 | 1001.5 | 992.1 | 1.91 | 1.571 | 1.323
x1 = 0.4 | 1002.3 | 992.7 | 983.2 | 1.795 | 1.48 | 1.247
x1 = 0.4999 | 993.4 | 983.7 | 974 | 1.681 | 1.391 | 1.173
x1 = 0.6 | 984.2 | 974.4 | 964.5 | 1.569 | 1.303 | 1.101
x1 = 0.7 | 974.7 | 964.8 | 954.7 | 1.457 | 1.215 | 1.029
x1 = 0.8 | 964.9 | 954.9 | 944.6 | 1.347 | 1.129 | 0.961
x1 = 0.9 | 954.3 | 944.3 | 934.1 | 1.242 | 1.047 | 0.899
x1 = 1 | 943.2 | 933.4 | 923.3 | 1.176 | 0.996 | 0.859
